# Assay results reported in the NIST ThermoML archive (doi:10.1016/j.jct.2015.01.004).
# Values joined by “and” are separate entries in the source; they are usually repeats but may differ in a detail not shown here. Identical values can stand only once. Numbers after ± are expanded uncertainties.
# Assay: molar heat capacity at constant pressure; xn = mol fraction of the nth substance listed
# Details: 100 kPa
compound,measurement,setting,value
[Si] [silicon] + [Li],molar heat capacity at constant pressure,"453.6 K, Crystal of intercomponent compound 1, Small sample (50 mg) DSC, x2 = 0.81",25.67 ± 0.63 J/K/mol
same,molar heat capacity at constant pressure,"460 K, Crystal of intercomponent compound 1, relaxation calorimetry + DSC, x2 = 0.81",25.6 ± 1 J/K/mol
same,molar heat capacity at constant pressure,"460 K, Crystal of intercomponent compound 2, relaxation calorimetry + DSC, x2 = 0.804",26.23 ± 1.1 J/K/mol
same,molar heat capacity at constant pressure,"463.31 K, Crystal of intercomponent compound 2, Small sample (50 mg) DSC, x2 = 0.804",26.1 ± 0.64 J/K/mol and 26.34 ± 0.65 J/K/mol
same,molar heat capacity at constant pressure,"463.5 K, Crystal of intercomponent compound 1, Small sample (50 mg) DSC, x2 = 0.81",25.45 ± 0.62 J/K/mol
same,molar heat capacity at constant pressure,"463.51 K, Crystal of intercomponent compound 1, Small sample (50 mg) DSC, x2 = 0.81",25.78 ± 0.63 J/K/mol
same,molar heat capacity at constant pressure,"473.22 K, Crystal of intercomponent compound 2, Small sample (50 mg) DSC, x2 = 0.804",26.29 ± 0.64 J/K/mol and 26.62 ± 0.65 J/K/mol
same,molar heat capacity at constant pressure,"473.42 K, Crystal of intercomponent compound 1, Small sample (50 mg) DSC, x2 = 0.81",25.23 ± 0.62 J/K/mol
same,molar heat capacity at constant pressure,"473.43 K, Crystal of intercomponent compound 1, Small sample (50 mg) DSC, x2 = 0.81",26 ± 0.64 J/K/mol
same,molar heat capacity at constant pressure,"480 K, Crystal of intercomponent compound 1, relaxation calorimetry + DSC, x2 = 0.81",25.91 ± 1.1 J/K/mol
same,molar heat capacity at constant pressure,"480 K, Crystal of intercomponent compound 2, relaxation calorimetry + DSC, x2 = 0.804",26.66 ± 1.1 J/K/mol
same,molar heat capacity at constant pressure,"483.13 K, Crystal of intercomponent compound 2, Small sample (50 mg) DSC, x2 = 0.804",26.48 ± 0.65 J/K/mol and 26.77 ± 0.66 J/K/mol
same,molar heat capacity at constant pressure,"483.33 K, Crystal of intercomponent compound 1, Small sample (50 mg) DSC, x2 = 0.81",25.45 ± 0.62 J/K/mol
same,molar heat capacity at constant pressure,"483.34 K, Crystal of intercomponent compound 1, Small sample (50 mg) DSC, x2 = 0.81",26.11 ± 0.64 J/K/mol
same,molar heat capacity at constant pressure,"493.04 K, Crystal of intercomponent compound 2, Small sample (50 mg) DSC, x2 = 0.804",26.73 ± 0.65 J/K/mol and 26.89 ± 0.66 J/K/mol
same,molar heat capacity at constant pressure,"493.24 K, Crystal of intercomponent compound 1, Small sample (50 mg) DSC, x2 = 0.81",25.56 ± 0.63 J/K/mol
same,molar heat capacity at constant pressure,"493.26 K, Crystal of intercomponent compound 1, Small sample (50 mg) DSC, x2 = 0.81",26.32 ± 0.64 J/K/mol
same,molar heat capacity at constant pressure,"500 K, Crystal of intercomponent compound 1, relaxation calorimetry + DSC, x2 = 0.81",26.22 ± 1.1 J/K/mol
same,molar heat capacity at constant pressure,"500 K, Crystal of intercomponent compound 2, relaxation calorimetry + DSC, x2 = 0.804",27.09 ± 1.1 J/K/mol
same,molar heat capacity at constant pressure,"502.95 K, Crystal of intercomponent compound 2, Small sample (50 mg) DSC, x2 = 0.804",26.84 ± 0.66 J/K/mol and 27.04 ± 0.66 J/K/mol
same,molar heat capacity at constant pressure,"503.15 K, Crystal of intercomponent compound 1, Small sample (50 mg) DSC, x2 = 0.81",25.78 ± 0.63 J/K/mol
same,molar heat capacity at constant pressure,"503.17 K, Crystal of intercomponent compound 1, Small sample (50 mg) DSC, x2 = 0.81",26.43 ± 0.65 J/K/mol
same,molar heat capacity at constant pressure,"512.86 K, Crystal of intercomponent compound 2, Small sample (50 mg) DSC, x2 = 0.804",27 ± 0.66 J/K/mol and 27.24 ± 0.67 J/K/mol
same,molar heat capacity at constant pressure,"513.06 K, Crystal of intercomponent compound 1, Small sample (50 mg) DSC, x2 = 0.81",25.89 ± 0.63 J/K/mol
same,molar heat capacity at constant pressure,"513.08 K, Crystal of intercomponent compound 1, Small sample (50 mg) DSC, x2 = 0.81",26.54 ± 0.65 J/K/mol
same,molar heat capacity at constant pressure,"520 K, Crystal of intercomponent compound 1, relaxation calorimetry + DSC, x2 = 0.81",26.54 ± 1.1 J/K/mol
same,molar heat capacity at constant pressure,"520 K, Crystal of intercomponent compound 2, relaxation calorimetry + DSC, x2 = 0.804",27.52 ± 1.1 J/K/mol
same,molar heat capacity at constant pressure,"522.77 K, Crystal of intercomponent compound 2, Small sample (50 mg) DSC, x2 = 0.804",27.23 ± 0.67 J/K/mol and 27.49 ± 0.67 J/K/mol
same,molar heat capacity at constant pressure,"522.97 K, Crystal of intercomponent compound 1, Small sample (50 mg) DSC, x2 = 0.81",26.11 ± 0.64 J/K/mol
same,molar heat capacity at constant pressure,"522.99 K, Crystal of intercomponent compound 1, Small sample (50 mg) DSC, x2 = 0.81",26.76 ± 0.66 J/K/mol
same,molar heat capacity at constant pressure,"532.68 K, Crystal of intercomponent compound 2, Small sample (50 mg) DSC, x2 = 0.804",27.46 ± 0.67 J/K/mol and 27.67 ± 0.68 J/K/mol
same,molar heat capacity at constant pressure,"532.88 K, Crystal of intercomponent compound 1, Small sample (50 mg) DSC, x2 = 0.81",26.21 ± 0.64 J/K/mol
same,molar heat capacity at constant pressure,"532.9 K, Crystal of intercomponent compound 1, Small sample (50 mg) DSC, x2 = 0.81",26.98 ± 0.66 J/K/mol
same,molar heat capacity at constant pressure,"540 K, Crystal of intercomponent compound 1, relaxation calorimetry + DSC, x2 = 0.81",26.88 ± 1.1 J/K/mol
same,molar heat capacity at constant pressure,"540 K, Crystal of intercomponent compound 2, relaxation calorimetry + DSC, x2 = 0.804",27.95 ± 1.1 J/K/mol
same,molar heat capacity at constant pressure,"542.58 K, Crystal of intercomponent compound 2, Small sample (50 mg) DSC, x2 = 0.804",27.67 ± 0.68 J/K/mol and 27.88 ± 0.68 J/K/mol
same,molar heat capacity at constant pressure,"542.79 K, Crystal of intercomponent compound 1, Small sample (50 mg) DSC, x2 = 0.81",26.54 ± 0.65 J/K/mol
same,molar heat capacity at constant pressure,"542.81 K, Crystal of intercomponent compound 1, Small sample (50 mg) DSC, x2 = 0.81",27.31 ± 0.67 J/K/mol
same,molar heat capacity at constant pressure,"552.5 K, Crystal of intercomponent compound 2, Small sample (50 mg) DSC, x2 = 0.804",27.8 ± 0.68 J/K/mol and 28 ± 0.69 J/K/mol
same,molar heat capacity at constant pressure,"552.7 K, Crystal of intercomponent compound 1, Small sample (50 mg) DSC, x2 = 0.81",26.76 ± 0.66 J/K/mol
same,molar heat capacity at constant pressure,"552.72 K, Crystal of intercomponent compound 1, Small sample (50 mg) DSC, x2 = 0.81",27.53 ± 0.67 J/K/mol
same,molar heat capacity at constant pressure,"560 K, Crystal of intercomponent compound 1, relaxation calorimetry + DSC, x2 = 0.81",27.23 ± 1.1 J/K/mol
same,molar heat capacity at constant pressure,"560 K, Crystal of intercomponent compound 2, relaxation calorimetry + DSC, x2 = 0.804",28.38 ± 1.1 J/K/mol
same,molar heat capacity at constant pressure,"562.41 K, Crystal of intercomponent compound 2, Small sample (50 mg) DSC, x2 = 0.804",27.97 ± 0.69 J/K/mol and 28.24 ± 0.69 J/K/mol
same,molar heat capacity at constant pressure,"562.61 K, Crystal of intercomponent compound 1, Small sample (50 mg) DSC, x2 = 0.81",27.09 ± 0.66 J/K/mol
same,molar heat capacity at constant pressure,"562.63 K, Crystal of intercomponent compound 1, Small sample (50 mg) DSC, x2 = 0.81",27.75 ± 0.68 J/K/mol
same,molar heat capacity at constant pressure,"572.33 K, Crystal of intercomponent compound 2, Small sample (50 mg) DSC, x2 = 0.804",28.21 ± 0.69 J/K/mol and 28.37 ± 0.69 J/K/mol
same,molar heat capacity at constant pressure,"572.52 K, Crystal of intercomponent compound 1, Small sample (50 mg) DSC, x2 = 0.81",27.31 ± 0.67 J/K/mol
same,molar heat capacity at constant pressure,"572.54 K, Crystal of intercomponent compound 1, Small sample (50 mg) DSC, x2 = 0.81",27.97 ± 0.69 J/K/mol
same,molar heat capacity at constant pressure,"580 K, Crystal of intercomponent compound 1, relaxation calorimetry + DSC, x2 = 0.81",27.6 ± 1.1 J/K/mol
same,molar heat capacity at constant pressure,"580 K, Crystal of intercomponent compound 2, relaxation calorimetry + DSC, x2 = 0.804",28.81 ± 1.2 J/K/mol
same,molar heat capacity at constant pressure,"582.24 K, Crystal of intercomponent compound 2, Small sample (50 mg) DSC, x2 = 0.804",28.41 ± 0.7 J/K/mol and 28.65 ± 0.7 J/K/mol
same,molar heat capacity at constant pressure,"582.43 K, Crystal of intercomponent compound 1, Small sample (50 mg) DSC, x2 = 0.81",27.53 ± 0.67 J/K/mol
same,molar heat capacity at constant pressure,"582.45 K, Crystal of intercomponent compound 1, Small sample (50 mg) DSC, x2 = 0.81",28.19 ± 0.69 J/K/mol
same,molar heat capacity at constant pressure,"592.15 K, Crystal of intercomponent compound 2, Small sample (50 mg) DSC, x2 = 0.804",28.65 ± 0.7 J/K/mol and 28.85 ± 0.71 J/K/mol
same,molar heat capacity at constant pressure,"592.34 K, Crystal of intercomponent compound 1, Small sample (50 mg) DSC, x2 = 0.81",27.86 ± 0.68 J/K/mol
same,molar heat capacity at constant pressure,"592.36 K, Crystal of intercomponent compound 1, Small sample (50 mg) DSC, x2 = 0.81",28.41 ± 0.7 J/K/mol
same,molar heat capacity at constant pressure,"600 K, Crystal of intercomponent compound 1, relaxation calorimetry + DSC, x2 = 0.81",28 ± 1.1 J/K/mol
same,molar heat capacity at constant pressure,"600 K, Crystal of intercomponent compound 2, relaxation calorimetry + DSC, x2 = 0.804",29.25 ± 1.2 J/K/mol
same,molar heat capacity at constant pressure,"602.06 K, Crystal of intercomponent compound 2, Small sample (50 mg) DSC, x2 = 0.804",28.86 ± 0.71 J/K/mol and 29.05 ± 0.71 J/K/mol
same,molar heat capacity at constant pressure,"602.26 K, Crystal of intercomponent compound 1, Small sample (50 mg) DSC, x2 = 0.81",28.19 ± 0.69 J/K/mol
same,molar heat capacity at constant pressure,"602.27 K, Crystal of intercomponent compound 1, Small sample (50 mg) DSC, x2 = 0.81",28.63 ± 0.7 J/K/mol
same,molar heat capacity at constant pressure,"611.97 K, Crystal of intercomponent compound 2, Small sample (50 mg) DSC, x2 = 0.804",29.02 ± 0.71 J/K/mol and 29.19 ± 0.72 J/K/mol
same,molar heat capacity at constant pressure,"612.17 K, Crystal of intercomponent compound 1, Small sample (50 mg) DSC, x2 = 0.81",28.3 ± 0.69 J/K/mol
same,molar heat capacity at constant pressure,"612.18 K, Crystal of intercomponent compound 1, Small sample (50 mg) DSC, x2 = 0.81",28.74 ± 0.7 J/K/mol
same,molar heat capacity at constant pressure,"620 K, Crystal of intercomponent compound 1, relaxation calorimetry + DSC, x2 = 0.81",28.43 ± 1.1 J/K/mol
same,molar heat capacity at constant pressure,"620 K, Crystal of intercomponent compound 2, relaxation calorimetry + DSC, x2 = 0.804",29.68 ± 1.2 J/K/mol
same,molar heat capacity at constant pressure,"621.88 K, Crystal of intercomponent compound 2, Small sample (50 mg) DSC, x2 = 0.804",29.19 ± 0.72 J/K/mol and 29.48 ± 0.72 J/K/mol
same,molar heat capacity at constant pressure,"622.08 K, Crystal of intercomponent compound 1, Small sample (50 mg) DSC, x2 = 0.81",28.41 ± 0.7 J/K/mol
same,molar heat capacity at constant pressure,"622.09 K, Crystal of intercomponent compound 1, Small sample (50 mg) DSC, x2 = 0.81",28.96 ± 0.71 J/K/mol
same,molar heat capacity at constant pressure,"631.8 K, Crystal of intercomponent compound 2, Small sample (50 mg) DSC, x2 = 0.804",29.46 ± 0.72 J/K/mol and 29.65 ± 0.73 J/K/mol
same,molar heat capacity at constant pressure,"631.99 K, Crystal of intercomponent compound 1, Small sample (50 mg) DSC, x2 = 0.81",28.74 ± 0.7 J/K/mol
same,molar heat capacity at constant pressure,"632.01 K, Crystal of intercomponent compound 1, Small sample (50 mg) DSC, x2 = 0.81",29.07 ± 0.71 J/K/mol
same,molar heat capacity at constant pressure,"640 K, Crystal of intercomponent compound 1, relaxation calorimetry + DSC, x2 = 0.81",28.9 ± 1.2 J/K/mol
same,molar heat capacity at constant pressure,"640 K, Crystal of intercomponent compound 2, relaxation calorimetry + DSC, x2 = 0.804",30.11 ± 1.2 J/K/mol
same,molar heat capacity at constant pressure,"641.71 K, Crystal of intercomponent compound 2, Small sample (50 mg) DSC, x2 = 0.804",29.67 ± 0.73 J/K/mol and 29.92 ± 0.73 J/K/mol
same,molar heat capacity at constant pressure,"641.89 K, Crystal of intercomponent compound 1, Small sample (50 mg) DSC, x2 = 0.81",28.96 ± 0.71 J/K/mol
same,molar heat capacity at constant pressure,"641.92 K, Crystal of intercomponent compound 1, Small sample (50 mg) DSC, x2 = 0.81",29.29 ± 0.72 J/K/mol
same,molar heat capacity at constant pressure,"651.63 K, Crystal of intercomponent compound 2, Small sample (50 mg) DSC, x2 = 0.804",29.86 ± 0.73 J/K/mol and 30.21 ± 0.74 J/K/mol
same,molar heat capacity at constant pressure,"651.81 K, Crystal of intercomponent compound 1, Small sample (50 mg) DSC, x2 = 0.81",29.07 ± 0.71 J/K/mol
same,molar heat capacity at constant pressure,"651.84 K, Crystal of intercomponent compound 1, Small sample (50 mg) DSC, x2 = 0.81",29.51 ± 0.72 J/K/mol
